The text below walks through data of US8048455B2, “Treatment of cancer and inflammatory disorder” (Academia Sinica, priority 2006, dated 2011).

Assay [1] deals with COX-2 and nitrotyrosine-containing proteins. Nature of the assay: Immunohistochemical study of COX-2 and nitrotyrosine protein expression in mouse skin. In kind it is in vivo, Female ICR mice. Here is the method:
Female ICR mice were topically treated on their shaven backs with vehicle (acetone), TPA, or SNP for 4 hours, or were treated with compound (dLGG, celecoxib, or PTIO) topically for 30 minutes before treating with TPA or SNP for 4 hours and finally killed by cervical dislocation. The formalin-fixed, paraffin-embedded skin tissues were stained according to Chiang et al. Br J Pharmacol 2005; 146:352-63.
Immunohistochemical study was carried out to examine the ability of dLGG to inhibit TPA induction of COX-2 and nitration of proteins in vivo using immunohistochemical analysis in a mouse skin system. Dorsal skin of female ICR mice was treated topically with acetone (vehicle control) or TPA (10 nmol) for 4 hours or with various concentrations of dLGG or celecoxib for 30 minutes before TPA treatment for 4 hours. Immunohistograms were taken with an Olympus DP-70 camera on a Nikon ECLIPSE E800 microscope.

In a further assay the test system is human COX-2 promoter. Nature of the assay: COX-2 promoter-driven luciferase reporter assay in TPA-treated B16 melanoma cells. In kind it is cell-based, murine. The note with it: for Suppression of full-length COX-2 promoter activity vs TPA only: TPA 50 ng/mL 6 h. From the text:
A double-mutated COX-2 promoter containing mutations on both NF-κB sites was also constructed (FIG. 2). PPGL-3-Basic vector was used as a negative control in luciferase assays. COX-2 reporter activity in arbitrary units (AU) was normalized to that for the Renilla luciferase reporter.
Murine melanoma B-16 cells co-transfected with the full-length pCOX-2-Luc and internal control plasmid pRL-TK-Luc plasmid constructs were stimulated without (control) or with TPA, in the absence or presence of the indicated concentrations of CREa8. An amount of 10 μg of total protein lysate was subjected to dual luciferase reporter assay. The induction fold of COX promoter activity by TPA treatment only is presented as 100%. The statistical analyses between […] and CREa8, aspirin, or indomethacin (Indo.) treatment were performed using Student's t-test.
B-16 cells were co-transfected with the full-length pCOX-2-Luc and internal control Renilla pRL-TK-Luc plasmid constructs with the LIPOFECTAMINE reagent (Invitrogen). The cells were then stimulated with vehicle (0.001% DMSO) or with 50 ng/mL TPA, in the absence or presence of dLGG for 6 hours. Ten μg of total protein lysate prepared with Passive Lysis Buffer (Promega) was subjected to dual luciferase reporter assay. The induction fold of COX-2 promoter activity by TPA treatment only is presented as 100%.
The contribution of specific cis-acting element binding sites on the transcription of COX-2 was examined. Data were obtained from 2 to 3 experiments with 3 to 6 replicates and expressed as mean±SD. Two-way ANOVA was used to analyze significance of differences.
Background: A reporter such as luciferase makes a cellular process visible.

A further assay has as its system PGE2 production. Nature of the assay: LPS-induced PGE2 production in RAW 264.7 macrophages. In kind it is cell-based, murine. The note with it: doses between 25 and 75 μg/mL. Here is the method:
PGE2 production was determined according to the procedure described in Chiang et al. Br J Pharmacol 2005; 146:352-63. Macrophages were pretreated with aspirin (500 μM, 3 h) to inactivate endogenous cyclooxygenase-1, washed, and incubated with test compounds for 1 hour before further incubation for 16 hours with or without LPS. PGE2 in the culture media was determined with ACE™ Competitive Enzyme Immunoassay (Cayman Chemical).
The above-mentioned test compounds were incubated with COX-2 enzyme and substrates before measuring the COX-2 activity. Celecoxib, a potent nonsteroidal anti-inflammatory drug (NSAID), was used as a positive control. […] The IC50 of the nonsteroidal anti-inflammatory drug celecoxib, used as a positive control, was 0.47 μg/mL. RAW 264.7 cells (1×10^4 cells/well) were treated with dLGG and then stimulated with LPS, and PGE2 in the culture medium was then measured.

The test system of a further assay is NF-κB•DNA complex. Nature of the assay: Electrophoretic mobility shift assay of NF-κB binding to consensus DNA in LPS-stimulated RAW 264.7 cells. Format: cell-based, murine. The note with it: for NF-κB•DNA complex, of LPS alone: 90 minutes; for NF-κB•DNA complex level: 75 μg/mL. Here is the method:
EMSA was performed with the […]™ Chemiluminescent EMSA kit (Pierce Biotechnology, Rockford, Ill.). […] The DNA-protein complexes were subjected to 5-10% gradient PAGE. Competition assay with unlabeled oligonucleotide (cold DNA) was performed in parallel. […]
For orientation: Mobility shift assays separate free from complexed probe on a gel.

A further assay concerns IKKα/β. Nature of the assay: IKKα/β phosphorylation, IRAK-1 degradation and IKK kinase assay in LPS-stimulated RAW 264.7 cells. Format: cell-based, murine. As to the method: Whole cell lysates (300 μg) of macrophages were pre-cleaned by incubation with 0.25 μg IgG and 20 μL protein A/G plus agarose beads (Santa Cruz) for 30 minutes at 4° C. Supernatants were then collected and incubated with IKKα/β antibody and protein A/G plus agarose beads at 4° C. overnight. Precipitates were washed with an IP buffer and a kinase buffer. IKK kinase activity was assayed by adding 1 μg of GST-IκBα fusion protein (Santa Cruz) and 200 μM ATP in 20 μL kinase buffer for 30 minutes at 30° C. and then stopped by mixing with the Laemmli's loading buffer and heated at 100° C. for 5 minutes. Samples were then subjected to immunoblotting.
Assays were carried out in RAW 264.7 cells to examine the effects of dLGG on levels of IKKα/β and phospho-IKKα/β, the upstream kinase of IκBα in the NF-κB signaling pathway, and the upstream kinase, IRAK-1, for activating IKK complex. Cells were pretreated with various concentrations of dLGG for 1 hours, followed by LPS stimulation (1 μg/mL for 30 min). Specific IKKα/β and the phosphorylated forms of IKKα/β or GST-IκBα were detected by immunoblotting. IKKα/β immunoprecipitates were prepared from total cell lysate using anti-IKKα/β antibody and subsequently subjected to IKK kinase assay using GST-IκBα as substrate. […] (nuclear protein) and α-tubulin (cytosolic protein) were used as loading controls.
IKK enzymatic activity was also determined to confirm whether it was correlated to the inhibition of IκBα phosphorylation by dLGG. Immunoprecipitated IKK proteins obtained from control cells (±LPS/−dLGG) or cells treated with LPS+dLGG were assayed for phosphorylation of GST-IκBα. The LPS-induced enzymatic phosphorylation of IκBα (p-IκBα) was decreased approximately 42% when treated with 75 μg/mL dLGG. The levels of immunoprecipitated IKK proteins were not affected by dLGG.

For the molecule `CC/C=C\C/C=C\C/C=C\CCCCCCCC(=O)OC[C@H](CO[C@@H]1O[C@H](CO)[C@H](O)[C@H](O)[C@H]1O)OC(=O)CCCCCCC/C=C\C/C=C\C/C=C\CC` [dLGG, 1,2-di-O-α-linolenoyl-3-O-β-galactopyranosyl-sn-glycerol], in assay [1] (1 mg in 200 μL/site (6.46 mM)), the “Inhibitory effect on COX-2 protein expression and nitrotyrosine-containing proteins versus celecoxib 10 mg in 200 μL/site” value was “comparable to that of celecoxib”. Also, in assay [1] (topical 30 min before TPA 10 nmol 4 h), the “TPA-induced increases of COX-2 and nitrotyrosine-containing proteins in epidermis” value is reported as “significantly attenuated”. Moreover, the “Topical SNP-induced nitroprotein formation in mouse skin” value in assay [1] (topical, SNP-treated) was “suppressed”. Further, the “Suppression of full-length COX-2 promoter activity vs TPA only” value in the assay with human COX-2 promoter (50 μg/mL, B16 cells) was found to be 20%; in the assay with human COX-2 promoter (100 μg/mL, B16 cells), 33%. Further, in the assay with human COX-2 promoter (100 μg/mL, B16 cells), the “TPA-induced luciferase activity of −1334/−1 and −646/−1 promoter constructs (smaller)” value is on record as 65-68%. Besides, in the assay with human COX-2 promoter (100 μg/mL, all transfected cells), the “TPA-activated increases in luciferase activity, truncated promoter constructs” value is given as “able to fully inhibit”. Also, the “TPA-induced COX-2 promoter activity in mutant promoter constructs (CRE, NF-IL6, NF-κB)” value in the assay with human COX-2 promoter (B16 cells) is “able to suppress”. The “Reduction of LPS-induced PGE2 levels” value in the assay on PGE2 production is 37-58%. In addition, the figures for the “NF-κB•DNA complex, of LPS alone” value in the assay with NF-κB•DNA complex (25 μg/mL) and in the assay with NF-κB•DNA complex (50 μg/mL) were 77% and 23%, respectively. The “NF-κB•DNA complex level” value in the assay with NF-κB•DNA complex (LPS 60 min) is listed as 0.43 times that of LPS alone (1.0); in the assay on NF-κB•DNA complex (LPS 90 min), 0.30 times that of LPS alone (1.0); with NF-κB•DNA complex (LPS 120 min), 0.16 times that of LPS alone (1.0); with NF-κB•DNA complex (LPS 180 min) it was 0.01 times that of LPS alone (1.0). In the assay with NF-κB•DNA complex (100 μM, LPS 1 μg/mL, 90 min), the “Inhibition of NF-κB•DNA complex formation (structure-activity study)” value is given as “almost completely inhibited”. In addition, the “Decrease of LPS-induced enzymatic phosphorylation of IκBα (IKK kinase assay, GST-IκBα)” value in the assay with IKKα/β (75 μg/mL) is on record as “approximately 42%”. Also, in the assay with IKKα/β (LPS-stimulated), the “IRAK-1 degradation in LPS-stimulated macrophages” value was “inhibited”. For the same molecule, in the assay with IKKα/β (dLGG 1 h, LPS 1 μg/mL 30 min), the IKKα/β levels entry is given as “little affected”. Also, the “LPS-induced phosphorylation of IKKα/β” value in the assay with IKKα/β (dLGG 1 h, LPS 1 μg/mL 30 min) is reported as “inhibited”.
